Measured values taken from paper PMC7582316, “Structural and Computational Insights into a Blebbistatin-Bound Myosin•ADP Complex with Characteristics of an ADP-Release Conformation along the Two-Step Myosin Power Stoke” (International Journal of Molecular Sciences, 2020).

Target: T1, Dd myosin-II motor domain (Dictyostelium discoideum, UniProt P08799)
T1 construct: gene mhcA; His6-tagged motor domain, amino acids 1–765 fused to a C-terminal SSB tag
Assay: microscale thermophoresis (MST); also X-ray crystal structure with blebbistatin
Format: binding

T1 sequence (P08799 1-765): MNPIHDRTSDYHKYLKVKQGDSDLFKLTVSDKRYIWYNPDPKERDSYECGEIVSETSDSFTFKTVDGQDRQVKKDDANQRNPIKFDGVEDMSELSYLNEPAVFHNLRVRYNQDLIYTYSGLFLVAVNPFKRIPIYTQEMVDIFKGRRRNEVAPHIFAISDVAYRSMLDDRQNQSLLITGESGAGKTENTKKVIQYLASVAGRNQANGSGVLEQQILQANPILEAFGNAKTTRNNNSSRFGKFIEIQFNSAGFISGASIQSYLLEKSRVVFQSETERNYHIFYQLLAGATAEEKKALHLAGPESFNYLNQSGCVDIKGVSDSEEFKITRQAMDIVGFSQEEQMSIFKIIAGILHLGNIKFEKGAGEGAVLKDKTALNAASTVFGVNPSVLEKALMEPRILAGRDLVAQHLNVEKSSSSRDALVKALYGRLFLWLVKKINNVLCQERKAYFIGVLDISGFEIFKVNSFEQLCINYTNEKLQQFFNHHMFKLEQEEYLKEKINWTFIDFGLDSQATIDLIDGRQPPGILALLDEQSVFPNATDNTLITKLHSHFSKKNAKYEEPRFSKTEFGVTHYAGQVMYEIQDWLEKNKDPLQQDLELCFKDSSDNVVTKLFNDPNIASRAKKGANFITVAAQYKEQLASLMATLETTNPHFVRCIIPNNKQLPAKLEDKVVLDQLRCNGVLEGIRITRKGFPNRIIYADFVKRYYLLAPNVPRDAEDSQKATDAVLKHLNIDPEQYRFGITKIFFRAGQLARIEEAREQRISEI

Compound: Nc1ncnc2c1ncn2[C@@H]1O[C@H](COP(=O)(O)OP(=O)(O)O)[C@@H](O)[C@H]1O [ADP]
- Kd: 37.5 ± 7.3 µM
